Test [1] addresses T1, bradykinin 1 receptor (B1R) of the rat (Rattus norvegicus, UniProt P97583).
T1 construct: expressed in transfected cells; host or cells: CHO K1 cells
T1 sequence (P97583 1-337): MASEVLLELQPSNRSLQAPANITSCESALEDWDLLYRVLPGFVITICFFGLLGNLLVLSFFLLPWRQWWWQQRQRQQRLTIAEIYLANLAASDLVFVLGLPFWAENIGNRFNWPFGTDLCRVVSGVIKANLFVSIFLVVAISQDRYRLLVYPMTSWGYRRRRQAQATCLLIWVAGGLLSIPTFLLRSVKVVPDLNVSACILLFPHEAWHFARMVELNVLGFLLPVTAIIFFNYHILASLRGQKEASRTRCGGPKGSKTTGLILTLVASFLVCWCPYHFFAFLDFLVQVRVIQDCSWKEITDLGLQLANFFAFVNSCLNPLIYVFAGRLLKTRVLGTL
The test can be described thus: Functional investigation on the rat bradykinin 1 receptor (B1R), Ca2+ FLIPR assay in CHO K1 rB1R cells. Format: cell-based. The note with it: test substance 10 μM, Ca2+ FLIPR, CHO K1 rB1R cells; for inhibition at 10 µM: CHO-K1, B1R antagonism rat, read-out: B1R Ant. r [10 μM] % Inhibition; for B1R Ant. r [10 μM] % Inhibition: B1R antagonism rat. An outline of the steps: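 Fluo-4 Ca2+ readout, peak fluorescence. Stable CHO K1 transfectants; compound pre-incubated 10-20 min, then EC80 agonist—Lys-Des-Arg9-BK for hB1R, Des-Arg9-BK for rB1R. % inhibition vs maximal inhibition; IC50 from multiple concentrations, duplicate/triplicate, ≥2 independent runs.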

The target of test [2] is T2, human μ opiate receptor (Homo sapiens, UniProt P35372).
T2 construct: purchased PerkinElmer Life Sciences, Zaventem, Belgium RB-HOM; host or cells: CHO-K1 cells (membrane preparation)
The test can be described thus: Affinity for the human μ opiate receptor ([3H]-naloxone displacement, CHO-K1 receptor membrane preparation, SPA). In kind it is binding. The note with it: test concentration of 1 μM; for inhibition at 1 µM: read-out: μ (binding on the μ opioid receptor, % inhibition). In outline: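 Displacement of 1 nmol/l [3H]-naloxone measured by SPA counting after 90 min at room temperature, using human μ receptor CHO-K1 membrane preparation in Tris-HCl buffer with 0.06% BSA. Test substances at 1 μmol/l give % inhibition; dilution series yield IC50, then Ki (Cheng-Prusoff); non-specific binding with 100 μmol/l naloxone.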

A word on the inhibition: it is the relative decrease from the control value, in per cent.

T2 sequence (P35372 whole entry): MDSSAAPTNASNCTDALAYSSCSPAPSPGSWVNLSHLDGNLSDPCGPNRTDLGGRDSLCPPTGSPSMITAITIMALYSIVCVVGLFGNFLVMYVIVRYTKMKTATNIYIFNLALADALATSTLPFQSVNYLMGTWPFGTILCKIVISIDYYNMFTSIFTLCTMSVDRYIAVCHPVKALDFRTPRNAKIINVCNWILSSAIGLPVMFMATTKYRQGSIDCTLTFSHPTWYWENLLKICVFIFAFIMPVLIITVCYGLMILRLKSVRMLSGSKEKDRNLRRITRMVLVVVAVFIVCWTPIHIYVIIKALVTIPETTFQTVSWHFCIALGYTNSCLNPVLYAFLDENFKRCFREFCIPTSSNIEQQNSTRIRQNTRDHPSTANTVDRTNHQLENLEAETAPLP

On to `CN(C)C(c1ccccc1)C1CCC(CNC(=O)COC2CCCN(S(=O)(=O)c3ccccc3)C2)CC1` (stereo not shown) [Example 114, N-((4-((dimethylamino)(phenyl)methyl)cyclohexyl)methyl)-2-(1-(phenylsulfonyl)piperidin-3-yloxy)acetamide], for which the inhibition at 10 µM in test [1] was 8%. In test [2], the inhibition at 1 µM was determined as 85%.

With `CN(C)C(c1cccs1)C1CCC(CCNC(=O)COCC2CCCN(S(=O)(=O)c3ccccc3)C2)CC1` (stereo not shown) [Example 115, N-(2-(4-((dimethylamino)(thiophen-2-yl)methyl)cyclohexyl)ethyl)-2-((1-(phenylsulfonyl)piperidin-3-yl)methoxy)acetamide], the inhibition at 10 µM in test [1] is 21%. The inhibition at 1 µM in test [2] was determined as 91%.

Take `CN(C)C(c1cccs1)C1CCC(CCNC(=O)COCCN(Cc2ccccc2)S(=O)(=O)c2ccccc2)CC1` (stereo not shown) [Example 116, 2-(2-(N-benzylphenylsulfonamido)ethoxy)-N-(2-(4-((dimethylamino)(thiophen-2-yl)methyl)cyclohexyl)ethyl)acetamide]: the inhibition at 10 µM in test [1] worked out at 14%. In addition, the inhibition at 1 µM in test [2] was 91%.

In the case of `CCN(CCOCC(=O)NCC1CCC(C(c2cccc(F)c2)N(C)C)CC1)S(=O)(=O)c1c(C)cc(OC)c(C)c1C` (stereo not shown) [Example 117, N-((4-((dimethylamino)(3-fluorophenyl)methyl)cyclohexyl)methyl)-2-(2-(N-ethyl-4-methoxy-2,3,6-trimethylphenylsulfonamido)ethoxy)acetamide], the inhibition at 10 µM in test [1] was determined as 77%. Also, the inhibition at 1 µM in test [2] is 92%.

Take `COc1cc(C)c(S(=O)(=O)N2CCC(CCOCC(=O)NC3CCC(C(c4cccc(F)c4)N(C)C)CC3)CC2)c(C)c1C` (stereo not shown) [Example 118, N-(4-((dimethylamino)(3-fluorophenyl)methyl)cyclohexyl)-2-(2-(1-(4-methoxy-2,3,6-trimethylphenylsulfonyl)piperidin-4-yl)ethoxy)acetamide]: the inhibition at 10 µM in test [1] is -4%. Besides, the inhibition at 1 µM in test [2] was determined as 90%.

As for `CN(C)C(c1cccc(F)c1)C1CCC(CNC(=O)COCC2CCCN2S(=O)(=O)c2ccc(Cl)c(Cl)c2)CC1` (stereo not shown) [Example 119, 2-((1-(3,4-dichlorophenylsulfonyl)pyrrolidin-2-yl)methoxy)-N-((4-((dimethylamino)(3-fluorophenyl)methyl)cyclohexyl)methyl)acetamide], the inhibition at 10 µM in test [1] is -6%. Also, the inhibition at 1 µM in test [2] is 90%.

For the compound `COc1ccc(S(=O)(=O)N2CCCCC2COCC(=O)NCCC2CCC(C(c3cccs3)N(C)C)CC2)cc1OC` (stereo not shown) [Example 120, 2-((1-(3,4-dimethoxyphenylsulfonyl)piperidin-2-yl)methoxy)-N-(2-(4-((dimethylamino)(thiophen-2-yl)methyl)cyclohexyl)ethyl)acetamide], in test [1], the inhibition at 10 µM was -14%. The inhibition at 1 µM in test [2] is 92%.

Take `Cc1ccc(S(=O)(=O)N2CCC(OCC(=O)NCC3CCC(C(c4ccccc4)N(C)C)CC3)C2)cc1` (stereo not shown) [Example 125, N-((4-((dimethylamino)(phenyl)methyl)cyclohexyl)methyl)-2-(1-tosylpyrrolidin-3-yloxy)acetamide]: in test [1], the inhibition at 10 µM was 6%. For the same compound, the inhibition at 1 µM in test [2] is 91%.

For the compound `CN(C)C(c1cccc(F)c1)C1CCC(CCNC(=O)COCCN(C)S(=O)(=O)c2ccc(Cl)cc2Cl)CC1` (stereo not shown) [Example 126, 2-(2-(2,4-dichloro-N-methylphenylsulfonamido)ethoxy)-N-(2-(4-((dimethylamino)(3-fluorophenyl)methyl)cyclohexyl)ethyl)acetamide], the inhibition at 10 µM in test [1] was 59%. Besides, the inhibition at 1 µM in test [2] was found to be 92%.

On to `COc1ccc(S(=O)(=O)N(C)CCOCC(=O)NCC2CCC(C(c3cccs3)N(C)C)CC2)cc1OC` (stereo not shown) [Example 127, 2-(2-(3,4-Dimethoxy-N-methylphenylsulfonamido)ethoxy)-N-((4-((dimethylamino)(thiophen-2-yl)methyl)cyclohexyl)methyl)acetamide], for which the inhibition at 10 µM in test [1] was 21%. Also, the inhibition at 1 µM in test [2] amounted to 87%.

On to `COc1ccc(S(=O)(=O)N(C)CCOCC(=O)NCCC2CCC(C(c3cccs3)N(C)C)CC2)cc1` (stereo not shown) [Example 128, N-(2-(4-((dimethylamino)(thiophen-2-yl)methyl)cyclohexyl)ethyl)-2-(2-(4-methoxy-N-methylphenylsulfonamido)ethoxy)acetamide], for which the inhibition at 10 µM in test [1] worked out at 46%. The inhibition at 1 µM in test [2] worked out at 91%.

In the case of `COc1cc(C)c(S(=O)(=O)N2CCCC(OCC(=O)NCCC3CCC(C(c4cccs4)N(C)C)CC3)C2)c(C)c1C` (stereo not shown) [Example 130, N-(2-(4-((dimethylamino)(thiophen-2-yl)methyl)cyclohexyl)ethyl)-2-(1-(4-methoxy-2,3,6-trimethylphenylsulfonyl)piperidin-3-yloxy)acetamide], the inhibition at 10 µM in test [1] stood at 15%. In test [2], the inhibition at 1 µM turned out to be 94%.

Regarding `COc1cc(C)c(S(=O)(=O)N2CCC(CCOCC(=O)NCC3CCC(C(c4cccs4)N(C)C)CC3)CC2)c(C)c1C` (stereo not shown) [Example 131, N-((4-((dimethylamino)(thiophen-2-yl)methyl)cyclohexyl)methyl)-2-(2-(1-(4-methoxy-2,3,6-trimethylphenylsulfonyl)piperidin-4-yl)ethoxy)acetamide], in test [1], the inhibition at 10 µM was -20%. Moreover, the inhibition at 1 µM in test [2] was 86%.

`CN(C)C(c1cccc(F)c1)C1CCC(NC(=O)COC2CCCCC2N(C)S(=O)(=O)c2ccc(Cl)c(Cl)c2)CC1` (stereo not shown) [Example 132, 2-(2-(3,4-dichloro-N-methylphenylsulfonamido)cyclohexyloxy)-N-(4-((dimethylamino)(3-fluorophenyl)methyl)cyclohexyl)acetamide]: in test [1], the inhibition at 10 µM was 2%. Also, the inhibition at 1 µM in test [2] stood at 91%.

Take `COc1ccc(S(=O)(=O)N2CCCCC2COCC(=O)NCC2CCC(C(c3cccs3)N(C)C)CC2)cc1OC` (stereo not shown) [Example 133, 2-((1-(3,4-Dimethoxyphenylsulfonyl)piperidin-2-yl)methoxy)-N-((4-((dimethylamino)(thiophen-2-yl)methyl)cyclohexyl)methyl)acetamide]: in test [1], the inhibition at 10 µM is 7%. Also, the inhibition at 1 µM in test [2] amounted to 89%.

`CN(C)C(c1ccccc1)C1CCC(NC(=O)COCCN(C)S(=O)(=O)c2c(Cl)cccc2Cl)CC1` (stereo not shown) [Example 135, 2-(2-(2,6-dichloro-N-methylphenylsulfonamido)ethoxy)-N-(4-((dimethylamino)(phenyl)methyl)cyclohexyl)acetamide]: in test [1], the inhibition at 10 µM worked out at 29%. Further, in test [2], the inhibition at 1 µM worked out at 89%.

Turning to `COc1ccc(S(=O)(=O)N2CCCCC2COCC(=O)NCC2CCC(C(CCc3ccccc3)N(C)C)CC2)c(OC)c1` (stereo not shown) [Example 420], the “B1R Ant. r [10 μM] % Inhibition” value in test [1] is 2%. The “μ (binding on the μ opioid receptor, % inhibition)” value in test [2] (1 µM) came to 53%.

As to `CN(C)C(CCc1ccccc1)C1CCC(CNC(=O)COCCN(C)S(=O)(=O)c2c(Cl)cccc2Cl)CC1` (stereo not shown) [Example 476], the “B1R Ant. r [10 μM] % Inhibition” value in test [1] is given as 74%. The “μ (binding on the μ opioid receptor, % inhibition)” value in test [2] (1 µM) is given as 47%.

For the compound `COc1ccc(S(=O)(=O)N2CCCCC2COCC(=O)NCC2CCC(C(CCc3ccccc3)N(C)C)CC2)c(OC)c1` (stereo not shown) [Example 486], in test [1], the “B1R Ant. r [10 μM] % Inhibition” value turned out to be 20%. Besides, the “μ (binding on the μ opioid receptor, % inhibition)” value in test [2] (1 µM) is 36%.

Consider `CN(C)C(c1cccc(F)c1)C1CCC(CCNC(=O)COCCC2CCN(S(=O)(=O)c3ccccc3)CC2)CC1` (stereo not shown) [Example 543], for which, in test [1], the “B1R Ant. r [10 μM] % Inhibition” value stood at 15%. In addition, the “μ (binding on the μ opioid receptor, % inhibition)” value in test [2] was 29%.

In the case of `CN(C)C(CCc1ccccc1)C1CCC(CNC(=O)COCC2CCCN(S(=O)(=O)c3ccccc3)C2)CC1` (stereo not shown) [Example 544], the “B1R Ant. r [10 μM] % Inhibition” value in test [1] is listed as 38%. In addition, in test [2], the “μ (binding on the μ opioid receptor, % inhibition)” value was found to be 24%.

Consider `COc1cc(C)c(S(=O)(=O)N2CCC(OCC(=O)NCC3CCC(C(CCc4ccccc4)N(C)C)CC3)CC2)c(C)c1C` (stereo not shown) [Example 546], for which the “B1R Ant. r [10 μM] % Inhibition” value in test [1] came to 59%. For the same compound, the “μ (binding on the μ opioid receptor, % inhibition)” value in test [2] amounted to 33%.

Regarding `COc1cc(C)c(S(=O)(=O)N(CCOCC(=O)NCCC2CCC(C(c3ccc(F)cc3)N(C)C)CC2)Cc2ccccc2)c(C)c1` (stereo not shown) [Example 547], the “B1R Ant. r [10 μM] % Inhibition” value in test [1] came out at 30%. Moreover, in test [2], the “μ (binding on the μ opioid receptor, % inhibition)” value is reported as 30%.

As for `COc1ccc(S(=O)(=O)N(C)CCOCC(=O)NC2CCC(C(c3ccc(F)cc3)N(C)C)CC2)cc1OC` (stereo not shown) [Example 548], the “B1R Ant. r [10 μM] % Inhibition” value in test [1] is listed as 11%. Besides, in test [2], the “μ (binding on the μ opioid receptor, % inhibition)” value came to 26%.

Consider `COc1ccc(S(=O)(=O)N(C)CCOCC(=O)NC2CCC(C(c3ccc(F)cc3)N(C)C)CC2)cc1` (stereo not shown) [Example 549], for which the “B1R Ant. r [10 μM] % Inhibition” value in test [1] was found to be 40%. Moreover, the “μ (binding on the μ opioid receptor, % inhibition)” value in test [2] came to 29%.

For the compound `COc1ccc(S(=O)(=O)N(C)CCOCC(=O)NCC2CCC(C(CCc3ccccc3)N(C)C)CC2)cc1` (stereo not shown) [Example 550], the “B1R Ant. r [10 μM] % Inhibition” value in test [1] turned out to be 50%. The “μ (binding on the μ opioid receptor, % inhibition)” value in test [2] is reported as 20%.

These data come from patent US8106055B2, “Substituted amide compounds” (Gruenenthal GmbH, priority 2007, dated 2012).
